Measurements reported in US20220408731A1, “MODIFIED ANTIMICROBIAL PEPTIDES” (priority 2021, published 2022).
In brackets after ≈: the same amount, converted by molar mass. Read-outs that look alike come from different tables or passages of the source. Square brackets hold non-standard residues; d marks the D form. Peptide text beside a SMILES is read from it. Dab = NCC[C@H](N)C(=O)O

Key:
C. glabrata = experiment: Peptide or protein/Fluconazole combination, MIC and FICI; conditions: Nakaseomyces glabratus
C. albicans = experiment: as above; conditions: Candida albicans
P. capsici = experiment: Antifungal MIC assay in SFM; type: cell-based
F. oxysporum = experiment: Antifungal MIC assay in SFM; type: cell-based
Coccidioides sp. = type: cell-based
Candida albicans = experiment: Antifungal MIC, CLSI M27/M38, half-strength potato dextrose broth; type: cell-based
Description: (§1) Testing for antifungal activity used half-strength potato dextrose broth for peptides and RPMI for comparator antifungals fluconazole and voriconazole. CLSI M27 and M38 methodologies used for to measure MICs. Minimal Inhibitory Concentration (MIC) is the concentration of the compound, protein, or peptide at which there is no significant growth of the microorganism relative to the growth of the microorganism in growth medium lacking the compound, protein, or peptide.
(§2) […] The concentration range for peptides in potato dextrose broth was 0.06-2 mcg/ml, the concentration range for fluconazole was 0.125-64 mcg/ml, and the concentration range for voriconazole was 0.03-16 mcg/ml. MICs were determined at 24-72 hours.

C. krusei = experiment: as above; type: cell-based; conditions: C. krusei ATCC 6258; 24-72 hours
Description: as §1, §2

Aspergillus fumigatus = experiment: as above; type: cell-based
Description: as §1, §2

Fusarium (F. solani) = experiment: as above; type: cell-based; conditions: Fusarium F4 (F. solani)
Description: as §1, §2

Candida auris = experiment: as above; type: cell-based
Description: as §1, §2

P. variotii = experiment: as above; type: cell-based; conditions: P. variotii MYA-363; 24-72 hours
Description: as §1, §2

Fusarium (F. oxysporum) = experiment: as above; type: cell-based
Description: as §1, §2

C. parapsilosis = experiment: as above; type: cell-based, Candida parapsilosis; conditions: C. parapsilosis ATCC 22019; 24-72 hours
Description: as §1, §2

## OC(Cn1cncn1)(Cn1cncn1)c1ccc(F)cc1F [Fluconazole]
C. glabrata; read-out: MIC alone (μM)
  MIC: 206 µM
C. glabrata; read-out: MIC alone μg/ml
  MIC: 64 µg/mL
C. albicans; read-out: MIC alone (μM)
  MIC: 206 µM
C. albicans; read-out: MIC alone μg/ml
  MIC: 64 µg/mL

## C[C@@H](O)[C@H](NC(=O)[C@H](CS)NC(=O)[C@H](Cc1ccccc1)NC(=O)[C@H](CS)NC(=O)[C@H](CCCNC(=N)N)NC(=O)[C@H](CCCNC(=N)N)NC(=O)[C@H](CCCNC(=N)N)NC(=O)[C@H](Cc1ccccc1)NC(=O)CNC(=O)[C@H](CCCNC(=N)N)NC(=O)[C@H](CS)NC(=O)[C@H](CCCNC(=N)N)NC(=O)CNC(=O)CN)C(=O)N[C@H](C(=O)N[C@@H](Cc1c[nH]cn1)C(=O)N[C@@H](CS)C(N)=O)[C@@H](C)O [GMA4C_AC, reference compound] (H-GGRCRGFRRRCFCTTHC-NH2; N-terminus assumed)
Botrytis cinerea
  Antifungal activity in presence of 100 mM NaCl or 100 mM KCl: retain their antifungal activity
  B. cinerea MIC: 1.5 to 3.0 µM
  MIC (μM) Botrytis cinerea: 3 µM (≈ 6.05 µg/mL)
  MIC Values (μM) against B. cinerea: 3 µM (≈ 6.05 µg/mL)
  SFM + 2 mM CaCl2 MIC: >6 µM
  SFM + 100 mM KCl MIC: 6 µM
  SFM + 100 mM NaCl MIC: 3 µM
  SFM MIC: 3 µM
P. capsici
  P. capsici MIC: 1.5 µM
F. oxysporum
  F. oxysporum MIC: 6 µM
Fusarium graminearum
  F. graminearum MIC: 3 µM
  MIC (μM) Fusarium graminearum: 3 µM (≈ 6.05 µg/mL)
  MIC Values (μM) against F. graminearum: 6 µM (≈ 12.1 µg/mL)

## NCC[C@H](NC(=O)CNC(=O)[C@@H](N)Cc1ccccc1)C(=O)N[C@@H](CS)C(=O)N[C@@H](CCN)C(=O)NCC(=O)N[C@@H](Cc1ccccc1)C(=O)N[C@@H](CCN)C(=O)N[C@@H](CCN)C(=O)N[C@@H](CCN)C(=O)N[C@@H](CS)C(=O)N[C@@H](Cc1ccccc1)C(=O)N[C@@H](CS)C(=O)N[C@@H](Cc1c[nH]c2ccccc12)C(=O)N[C@@H](CCN)C(=O)N[C@@H](Cc1c[nH]c2ccccc12)C(=O)N[C@@H](CS)C(N)=O [GMA4C_V5A, FG(Dab)C(Dab)GF(Dab)(Dab)(Dab)CFCW(Dab)WC-NH2] (H-FG[Dab]C[Dab]GF[Dab][Dab][Dab]CFCW[Dab]WC-NH2; N-terminus assumed)
Botrytis cinerea
  MIC (μM) Botrytis cinerea: 6 µM (≈ 11.8 µg/mL)
  MIC Values (μM) against B. cinerea: 3 µM (≈ 5.88 µg/mL)
  SFM + 2 mM CaCl2 MIC: >6 µM
  SFM + 100 mM KCl MIC: >6 µM
  SFM + 100 mM NaCl MIC: 6 µM
  SFM MIC: 6 µM
Coccidioides sp.; Coccidioides sp. Cocci1
  MIC 100%: 2 µg/mL (≈ 1.02 µM)
Coccidioides sp.; Coccidioides sp. Cocci2
  MIC 100%: 16 µg/mL (≈ 8.17 µM)
Coccidioides sp.; Coccidioides sp. DI17-143
  MIC 100%: 16 µg/mL (≈ 8.17 µM)
Candida albicans; Candida albicans ATCC 90028
  MIC 100%: 16 µg/mL (≈ 8.17 µM)
Candida albicans; Candida albicans CA3
  MIC 100%: 8 µg/mL (≈ 4.08 µM)
Candida albicans; Candida albicans SC5314
  MIC 100%: 16 µg/mL (≈ 8.17 µM)
C. krusei
  MIC 100%: 8 µg/mL (≈ 4.08 µM)
Aspergillus fumigatus; Aspergillus fumigatus AF293
  MIC 100%: 32 µg/mL (≈ 16.3 µM)
Aspergillus fumigatus; Aspergillus fumigatus DI15-106
  MIC 100%: >32 µg/mL
Aspergillus fumigatus; Aspergillus fumigatus DI15-116
  MIC 100%: >32 µg/mL
Fusarium (F. solani)
  MIC 100%: 8 µg/mL (≈ 4.08 µM)
Candida auris; Candida auris DI17-46
  MIC 100%: 16 µg/mL (≈ 8.17 µM)
Candida auris; Candida auris DI17-47
  MIC 100%: 16 µg/mL (≈ 8.17 µM)
Candida auris; Candida auris DI17-48
  MIC 100%: 16 µg/mL (≈ 8.17 µM)
P. variotii
  MIC 100%: 4 µg/mL (≈ 2.04 µM)
Fusarium (F. oxysporum); Fusarium F1 (F. oxysporum)
  MIC 100%: 8 µg/mL (≈ 4.08 µM)
Fusarium (F. oxysporum); Fusarium F2 (F. oxysporum)
  MIC 100%: 16 µg/mL (≈ 8.17 µM)
C. parapsilosis
  MIC 100%: 8 µg/mL (≈ 4.08 µM)
